According to patent US20240025862A1, “SUBSTITUTED N-PHENYLURACILS AND SALTS THEREOF, AND USE THEREOF AS HERBICIDAL ACTIVE SUBSTANCES” (Bayer Aktiengesellschaft, priority 2020, published 2024):

How the values were obtained:
Format in all cases: in vivo
[1] = system: Matricaria inodora (MATIN); test: Post-emergence herbicidal action, greenhouse pot test (also comparative test C)
Procedure: (§1) Seeds of monocotyledonous and dicotyledonous weeds and crop plants were placed in sandy loam in plastic or wood-fiber pots, covered with soil and cultivated in a greenhouse under controlled growth conditions. 2 to 3 weeks after sowing, the test plants were treated at the one-leaf stage. The compounds of the invention, formulated in the form of wettable powders (WP) or as emulsion concentrates (EC), were then sprayed onto the green parts of the plants as aqueous suspension or emulsion with addition of 0.5% additive at a water application rate of 600 l/ha (converted). After the test plants had been kept in the greenhouse under optimum growth conditions for about 3 weeks, the activity of the preparations was rated visually in comparison to untreated controls. For example, 100% activity=the plants have died, 0% activity=like control plants.
(§2) Tables A1 to A14 below show the effects of selected compounds of the general formula (I) according to Tables I.1 to I.33 on various harmful plants and at an application rate corresponding to 20 g/ha and less, which were obtained by the experimental method specified above. The appendices “a”, “b” and “c” give differentiation by different dosage with otherwise the same harmful plants tested.
(§3) C. Comparative Herbicidal Action and Crop Plant Compatibility of Two Inventive Compounds (I.7-1 and I.7-115) with a Compound of Similar Structure Known from the Literature (WO2002/098227, a-17 and EP1106607, 3-14) in Post-Emergence Treatment.
(§4) Tables C1-C4 below show the effects of two inventive compounds (I.7-1 and I.7-115) together with a compound of similar structure known from the literature (a-17 in WO2002/098227, and 3-14 in EP1106607) in different crop plants at an application rate corresponding to 5 g/ha or less, which have been obtained by the aforementioned experimental procedure.

[2] = system: Echinochloa crus-galli (ECHCG); test: as above
Procedure: as §1, §2, §3, §4

[3] = system: Setaria viridis (SETVI); test: as above; conditions: for Post-emergence action against SETVI: 20 g/ha
Procedure: as §1, §2, §3, §4

[4] = system: Alopecurus myosuroides (ALOMY); test: as above; conditions: for ALOMY (efficacy in %): comparative test C, application rate 5 g/ha
Procedure: as §1, §2, §3, §4

[5] = system: Triticum aestivum (TRZAS); test: Post-emergence crop plant compatibility, greenhouse pot test; conditions: vs untreated controls
Procedure: as §1
(§5) The observed effects on selected crop plants are reported here in comparison to the untreated controls (values in %). The appendices “a”, “b” and “c” give differentiation by different dosage with otherwise the same crop plants tested.

[6] = system: Veronica persica (VERPE); test: Post-emergence herbicidal action, greenhouse pot test
Procedure: as §1, §2

[7] = system: Amaranthus retroflexus (AMARE); test: as above; conditions: rated visually after about 3 weeks vs untreated controls, 100% = plants have died
Procedure: as §1, §2

[8] = system: Polygonum convolvulus (POLCO); test: as above
Procedure: as §1, §2

[9] = system: Viola tricolor (VIOTR); test: as above
Procedure: as §1, §2

[10] = system: Pharbitis purpurea (PHBPU); test: as above
Procedure: as §1, §2

[11] = system: Abutilon theophrasti (ABUTH); test: as above; conditions: rated visually after about 3 weeks vs untreated controls, 100% = plants have died
Procedure: as §1, §2

[12] = system: Oryza sativa (ORYSA); test: Post-emergence crop plant compatibility, greenhouse pot test (also comparative test C); conditions: for Post-emergence action against ORYSA (crop plant compatibility): vs untreated controls
Procedure: as §1, §5, §3

[13] = rated visually after about 3 weeks vs untreated controls, 100% = plants have died
[14] = comparative test C, application rate 1.25 g/ha

SMILES | Post-emergence action against TRZAS (crop plant compatibility) ([5]; 1.25 g/ha) | Post-emergence action against MATIN in % ([1]; dosage 5 g/ha) | Post-emergence action against ECHCG in % ([2]; dosage 20 g/ha) | Post-emergence action against SETVI [3] | Post-emergence action against SETVI in % ([3]; dosage 1.25 g/ha) | Post-emergence action against SETVI in % ([3]; dosage 5 g/ha) | Post-emergence action against MATIN in % ([1]; dosage 20 g/ha) | Post-emergence action at 20 g/ha against ALOMY in % [4, 13] | Post-emergence action against VERPE ([6]; 1.25 g/ha) | Post-emergence action against VERPE ([6]; 5 g/ha) | Post-emergence action against VERPE ([6]; 20 g/ha) | Post-emergence action at 1.25 g/ha against AMARE in % [7] | Post-emergence action at 5 g/ha against AMARE in % [7] | Post-emergence action at 20 g/ha against AMARE in % [7] | Post-emergence action against POLCO in % ([8]; dosage 5 g/ha) | Post-emergence action against POLCO in % ([8]; dosage 20 g/ha) | Post-emergence action against VIOTR ([9]; 5 g/ha) | Post-emergence action against VIOTR ([9]; 20 g/ha) | Post-emergence action against PHBPU in % ([10]; dosage 1.25 g/ha) | Post-emergence action against PHBPU in % ([10]; dosage 5 g/ha) | other results
Cn1c(C(F)(F)F)cc(=O)n(-c2cc(Oc3ccccc3OCC(=O)OCC3CCCO3)c(Cl)cc2F)c1=O (racemic) [Example 1.7-71] | – | 100% | – | – | – | – | – | – | – | – | – | – | – | – | – | – | – | – | – | – | –
CCCCOC(=O)COc1ccccc1Oc1cc(-n2c(=O)cc(C(F)(F)F)n(C)c2=O)c(F)cc1Cl [a-17, reference compound] | – | – | – | – | – | – | – | – | – | – | – | – | – | – | – | – | – | – | – | – | ECHCG (efficacy in %) [2, 14]: 60%; SETVI (efficacy in %) [3, 14]: 80%; MATIN (efficacy in %) [1, 14]: 30%; ORYSA (efficacy in %) ([12]; comparative test C, application rate 1.25 g/ha, crop plant compatibility): 20%
COCCOC(=O)COc1ccccc1Oc1cc(-n2c(=O)cc(C(F)(F)F)n(C)c2=O)c(F)cc1Cl [drawing 110] | – | – | – | – | – | – | – | – | – | – | – | – | – | – | – | – | – | – | – | – | ALOMY (efficacy in %) [4]: 80%
Cn1c(C(F)(F)F)cc(=O)n(-c2cc(Oc3ccccc3OCC(=O)OC3COC3)c(Cl)cc2F)c1=O [drawing 111] | – | – | – | – | – | – | – | – | – | – | – | – | – | – | – | – | – | – | – | – | ALOMY (efficacy in %) [4]: 100%
CCCCOC(=O)COc1ccccc1Oc1cc(-n2c(=O)cc(C(F)(F)F)n(C)c2=O)c(F)cc1Cl [drawing 112] | – | – | – | – | – | – | – | – | – | – | – | – | – | – | – | – | – | – | – | – | ALOMY (efficacy in %) [4]: 30%

Now from value to compound, other results behind:

Post-emergence action against TRZAS (crop plant compatibility) ([5]; 1.25 g/ha) | SMILES | Post-emergence action against MATIN in % ([1]; dosage 5 g/ha) | Post-emergence action against ECHCG in % ([2]; dosage 20 g/ha) | Post-emergence action against SETVI [3] | Post-emergence action against SETVI in % ([3]; dosage 1.25 g/ha) | Post-emergence action against SETVI in % ([3]; dosage 5 g/ha) | Post-emergence action against MATIN in % ([1]; dosage 20 g/ha) | Post-emergence action at 20 g/ha against ALOMY in % [4, 13] | Post-emergence action against VERPE ([6]; 1.25 g/ha) | Post-emergence action against VERPE ([6]; 5 g/ha) | Post-emergence action against VERPE ([6]; 20 g/ha) | Post-emergence action at 1.25 g/ha against AMARE in % [7] | Post-emergence action at 5 g/ha against AMARE in % [7] | Post-emergence action at 20 g/ha against AMARE in % [7] | Post-emergence action against POLCO in % ([8]; dosage 5 g/ha) | Post-emergence action against POLCO in % ([8]; dosage 20 g/ha) | Post-emergence action against VIOTR ([9]; 5 g/ha) | Post-emergence action against VIOTR ([9]; 20 g/ha) | Post-emergence action against PHBPU in % ([10]; dosage 1.25 g/ha) | Post-emergence action against PHBPU in % ([10]; dosage 5 g/ha) | other results
0% | COCCOCCOC(=O)COc1ccccc1Oc1cc(-n2c(=O)cc(C(F)(F)F)n(C)c2=O)c(F)cc1C#N [I.9-23] | 80% | 100% | 100% | 100% | 100% | 100% | 80% | 80% | 100% | 100% | 100% | 100% | 100% | 100% | 100% | 100% | 100% | 80% | 100% | Post-emergence action against TRZAS (crop plant compatibility) ([5]; 5 g/ha): 20%; Post-emergence action against TRZAS (crop plant compatibility) ([5]; 20 g/ha): 20%; Post-emergence action against VIOTR ([9]; 1.25 g/ha): 100%; Post-emergence action against PHBPU in % ([10]; dosage 20 g/ha): 100%; Post-emergence action at 1.25 g/ha against ABUTH in % [11]: 80%; Post-emergence action at 5 g/ha against ABUTH in % [11]: 100%; Post-emergence action at 20 g/ha against ABUTH in % [11]: 100%; Post-emergence action against ORYSA (crop plant compatibility) ([12]; 1.25 g/ha): 0%; Post-emergence action against ORYSA (crop plant compatibility) ([12]; 5 g/ha): 0%; Post-emergence action against ORYSA in % ([12]; 20 g/ha, crop plant compatibility): 20%
20% | COCCOC(=O)COc1cccc(F)c1Oc1cc(-n2c(=O)cc(C(F)(F)F)n(C)c2=O)c(F)cc1Cl [I.19-1] | 90% | 100% | 100% | 100% | 100% | 100% | 100% | 100% | 100% | 100% | 100% | 100% | 100% | 100% | 100% | 100% | 100% | 100% | 100% | Post-emergence action at 1.25 g/ha against ECHCG in % ([2]; 1.25 g/ha, rated visually after about 3 weeks vs untreated controls, 100% = plants have died): 100%; Post-emergence action against ECHCG in % ([2]; dosage 5 g/ha): 100%; Post-emergence action against VIOTR ([9]; 1.25 g/ha): 100%; Post-emergence action against PHBPU in % ([10]; dosage 20 g/ha): 100%; Post-emergence action at 1.25 g/ha against ABUTH in % [11]: 100%; Post-emergence action at 5 g/ha against ABUTH in % [11]: 100%; Post-emergence action at 20 g/ha against ABUTH in % [11]: 100%
10% | COCCOCCOC(=O)COc1cccc(F)c1Oc1cc(-n2c(=O)cc(C(F)(F)F)n(C)c2=O)c(F)cc1Cl [I.19-23] | 100% | 100% | 100% | 100% | 100% | 100% | 100% | 100% | 100% | 100% | 100% | 100% | 100% | 100% | 100% | 100% | 100% | 100% | 100% | Post-emergence action against ECHCG in % ([2]; dosage 5 g/ha): 100%; Post-emergence action at 5 g/ha against ALOMY in % ([4]; 5 g/ha, rated visually after about 3 weeks vs untreated controls, 100% = plants have died): 80%; Post-emergence action against POLCO in % ([8]; dosage 1.25 g/ha): 100%; Post-emergence action against PHBPU in % ([10]; dosage 20 g/ha): 100%; Post-emergence action at 5 g/ha against ABUTH in % [11]: 100%; Post-emergence action at 20 g/ha against ABUTH in % [11]: 100%; Post-emergence action against ORYSA (crop plant compatibility) ([12]; 1.25 g/ha): 10%
20% | Cn1c(C(F)(F)F)cc(=O)n(-c2cc(Oc3c(F)cccc3OCC(=O)OCC#N)c(Cl)cc2F)c1=O [I.19-176] | 100% | 100% | 100% | 90% | 100% | 100% | 80% | 100% | 100% | 100% | 100% | 100% | 100% | 100% | 100% | 100% | 100% | 100% | 100% | Post-emergence action against ECHCG in % ([2]; dosage 5 g/ha): 100%; Post-emergence action against POLCO in % ([8]; dosage 1.25 g/ha): 100%; Post-emergence action against VIOTR ([9]; 1.25 g/ha): 80%; Post-emergence action against PHBPU in % ([10]; dosage 20 g/ha): 100%; Post-emergence action at 1.25 g/ha against ABUTH in % [11]: 100%; Post-emergence action at 5 g/ha against ABUTH in % [11]: 100%; Post-emergence action at 20 g/ha against ABUTH in % [11]: 100%; Post-emergence action against ORYSA (crop plant compatibility) ([12]; 1.25 g/ha): 0%
